Laboratory results published in patent US20250313849A1, “OPTOGENETIC INDUCTION OF MEMBRANELESS ORGANELLES” (UNIVERSITY OF PITTSBURGH-OF THE COMMONWEALTH SYSTEM OF …, priority 2017, published 2025).
“Also recorded” adds a separate entry of the source.

What was measured:
Format in all cases: cell-based
[1] = tested on: protein synthesis; test: De novo protein synthesis, HPG incorporation with Click-iT detection
Description: FIGS. 14A-14B. […] The major function of endogenous stress granules is to bind mRNAs and halt protein synthesis until the cellular stress is removed. To test this, cells expressing G3BP1-NcVVDY50W were either exposed to blue light stimulation or not for 30 minutes and protein translation was assessed. Prior to the translation assay, cells were treated with cyclohexamide for one hour to inhibit protein synthesis and then the cyclohexamide was removed and cells were provided L-Homopropargylglycine (HPG) for one hour. HPG acts as a methionine amino acid analog and is incorporated into newly synthesized proteins. Click-iT™ chemistry was then performed to detect HPG and cells were imaged. Green signal indicates newly synthesized proteins during the time at which HPG is present in the media.
FIGS. 24A-24E. Replacing the G3BP1 NTF2 domain, which is required for G3BP1 self-oligomerization (optoSG), with oligomerizing photoreceptors, is sufficient to initiate the formation of optogenetic stress granules. FIG. 24A) Schematics of an additional approach to seed optoStress Granules (optoSGs) employing truncated G3BP1 protein and replacing the NTF2 oligomerizing domain with a photoreceptor with the capacity to oligomerize (in this instance Cry2-PHR, but also works with chronic stimulation of dimerizing photoreceptor). FIG. 24B) HEK cells expressing Cry2 PHR-[…]NTF-G3BP1 were exposed to blue light LED stimulation for 30 minutes to induce the formation of optoSGs.

[2] = tested on: ReNCell differentiated cortical neuron-like cells; test: Blue light induced stress granules in ReNCell differentiated cortical neuron-like cells
From the text: FIG. 20. Blue light induced stress granules using a G3BP1-NcVVDY50W protein arrangement in ReNCell differentiated cortical neuron-like cells. A DNA arrangement that generates the G3BP1-NcVVDY50W was developed and expressed in ReNCell differentiated cortical neuron-like cells. To confirm differentiation of ReN cells to cortical neuron-like cells, cultures were probed for MAP2, a protein that is only expressed in neurons. Under normal conditions, the NcVVDY50W-G3BP1 remains diffuse in the cytoplasm.

[3] = tested on: HEK293 cells; test: Blue light induced stress granules: staining for stress granule markers and mRNA; conditions: blue light stimulation
From the text: FIGS. 2A-2B. Blue light induced stress granules using a NcVVDY50W-G3BP1 protein arrangement. […] A DNA arrangement that generates the NcVVDY50W-G3BP1 was developed and expressed in HEK293 cells. Under normal conditions, the NcVVDY50W-G3BP1 remains diffuse in the cytoplasm. When endogenous stress granule formation is induced with heat shock, the NcVVDY50W-G3BP1 forms stress granules that stain positive for key markers including Ataxin-2 and TIAR.
FIG. 5. […] Under normal conditions, G3BP1-NcVVDY50W remains diffuse in the cytoplasm. When endogenous stress granule formation is induced with NaAsO2 (0.5 mM, 30 min treatment), the G3BP1-NcVVDY50W forms stress granules that stain positive for key markers TDP-43 and eIF4G. […] As an example of this technology, DNA arrangements were developed that generated G3BP1-NcVVDY50W, and expressed in HEK293 cells. Under normal conditions, the G3BP1-NcVVDY50W remains diffuse in the cytoplasm. When endogenous stress granule formation is induced with sodium arsenite, the G3BP1-NcVVDY50W forms stress granules that probe positive for key markers, including TDP-43 and eIF4G. […] Inserts are 3D images of stress granules indicated by arrows.
While stress granule dynamics are shown to be altered in these diseases, the true contributions of stress granules to disease pathobiology is unknown since the only current method to form these organelles is to introduce an extracellular stressor (e.g. heat stress at 43° C., exposure to sodium arsenite) which is toxic to cells and ultimately kills the cells being studied. The longest studies of stress granules to date are only on the order of a few hours and so, the importance of these organelles in the initiation of neurodegeneration or cancer cannot be assessed. Therefore, a method to control stress granule formation was developed using light, without the need for any extracellular stressors. To achieve this, the DNA encoding specific photoreceptor protein domains that self-bind with blue light exposure were linked to the DNA of a key protein required for the formation of stress granules, G3BP1 or TIA1. These arrangements were then expressed in HEK293 cells and were tested for their ability to form functional stress granules with various blue light treatment paradigms. It was shown that the LOV photoreceptor domain, from the Vivid protein of N. crassa, which is known to dimerize with blue light exposure, when fused to G3BP1 and exposed to 15-1080 min of 465 nm light at 0.1-1.0 mW/cm2 initiates the formation of a core stress granule structure consisting of the photoreceptors fused to G3BP1 that recruits additional G3BP1 and accessory proteins that comprise stress granules and allow for their maturation. This likely involved the liquid-liquid phase separation (LLPS) and dimerization and oligomerization of G3BP1 (concept represented in FIG. 1).

[4] = tested on: phospho-eIF2a and ATF4; test: Western blotting for integrated stress response (ISR) components; conditions: total protein of cells with blue light induced stress granules
From the text: FIGS. 21A-21B. […] Total cellular protein from blue light induced stress granules using G3BP1-NcVVDY50W protein arrangement was collected.

For “G3BP1-NcVVDY50W: G3BP1 Full Length Protein with NcVivid Y50W, SEQ ID NO: 16”, the “reduction in protein synthesis with light-induced stress granules” value ([1]; blue light stimulation 30 minutes, HPG for one hour) was 40%, the “protein synthesis (HPG signal) with light-induced stress granules” value ([1]; blue light stimulation, Click-iT detection) was “little to no HPG signal” and the “colocalization of blue light induced stress granules with Ataxin-2” value [2] was “colocalize with the key stress granule marker Ataxin-2”. For the same substance, the “colocalization of blue light induced stress granules with stress granule markers” value [3] was “colocalize with the key translation factor eIF4G, and the stress granule marker Ataxin-2; also recorded: colocalize with the key stress granule markers TIAR and G3BP; also recorded: probe positive for TDP-43 and eIF4G; also recorded: colocalize with the key stress granule markers RPS6 and eIF4G (FIG. 6A), as well as Ataxin-2 and RPS3; also recorded: colocalize with the key stress granule markers PABPC1 and G3BP (FIG. 7A), as well as eIF3H and eIF4G; also recorded: colocalize with the key stress granule markers FUS and G3BP; also recorded: colocalize with the key stress granule marker Ataxin-2, but not RPL36a”, the “mRNA sequestration by blue light induced stress granules” value [3] was “sequester cytoplasmic mRNA” and the “induction of cell stress (phospho-eIF2a, ATF4)” value [4] was “do not induce a cell stress”.
